Assay results reported in article PMC6713233 (Toxicology in vitro : an international journal published in …, 2019).
“And” between values parts separate entries of the source, which are not always exact repeats. Identical values can stand only once. Like-named read-outs stand apart in the source and are kept apart here.

Tests used:
recombinant human AChE [1] = biological target: T1, recombinant human AChE (Homo sapiens, UniProt P22303); test: biochemical; format: biochemical; conditions: for Emax: read-out: efficacy (%), Colorimetric
recombinant human AChE [2] = biological target: T1, recombinant human AChE; test: biochemical; format: biochemical; conditions: for Emax: read-out: efficacy (%), Fluorescence
recombinant human AChE [3] = biological target: T1, recombinant human AChE; format: biochemical
recombinant human AChE [4] = biological target: T1, recombinant human AChE; test: biochemical; format: biochemical; conditions: for Emax: read-out: efficacy (%), Fluorescence, +Rat MS
recombinant human AChE [5] = biological target: T1, recombinant human AChE; test: biochemical
recombinant human AChE [6] = biological target: T1, recombinant human AChE; test: biochemical; format: biochemical; conditions: for Emax: read-out: efficacy (%), Colorimetric, +Rat MS
cholinesterase = conditions: following exposure; rats, mice, birds, fish, and farm animals; ref International Programme on Chemical Safety, 1989; cited from earlier work
AChE = conditions: following exposure; ref International Programme on Chemical Safety, 1989; cited from earlier work
[7] = IC50 (μM), Colorimetric, +Human MS

T1 sequence (P22303 32-614): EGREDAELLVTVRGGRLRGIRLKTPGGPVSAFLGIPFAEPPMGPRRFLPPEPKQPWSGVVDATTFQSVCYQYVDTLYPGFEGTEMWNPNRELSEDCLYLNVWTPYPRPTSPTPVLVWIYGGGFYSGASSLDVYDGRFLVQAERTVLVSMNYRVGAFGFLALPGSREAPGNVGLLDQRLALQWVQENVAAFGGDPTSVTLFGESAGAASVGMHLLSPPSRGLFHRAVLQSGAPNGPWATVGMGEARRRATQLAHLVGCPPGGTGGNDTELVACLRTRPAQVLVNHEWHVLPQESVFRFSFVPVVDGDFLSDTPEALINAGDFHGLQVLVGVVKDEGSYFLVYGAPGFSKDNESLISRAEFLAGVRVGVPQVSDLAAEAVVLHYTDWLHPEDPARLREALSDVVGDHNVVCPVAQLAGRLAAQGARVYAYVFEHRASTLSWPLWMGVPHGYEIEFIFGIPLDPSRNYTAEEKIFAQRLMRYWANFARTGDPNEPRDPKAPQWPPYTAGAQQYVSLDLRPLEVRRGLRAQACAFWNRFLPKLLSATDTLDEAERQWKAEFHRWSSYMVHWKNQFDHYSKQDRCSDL

SMILES | IC50 (μM), Colorimetric (recombinant human AChE [1]) | Emax (recombinant human AChE [1]) | Emax (recombinant human AChE [4]) | Emax (recombinant human AChE [2]) | Emax (recombinant human AChE [6]) | also measured
COP(=O)(NC(C)=O)SC (stereo not shown) [Acephat] | Inactive |  |  |  |  | IC50 (μM), Fluorescence (recombinant human AChE [2]): Inactive
CCOP(=S)(OCC)OC(Cl)C(Cl)(Cl)Cl (stereo not shown) [Chlorethoxyfos] |  | 46.3% | 100% | 99.2% | 105% | efficacy (%), Fluorescence, +Human MS (recombinant human AChE [3]): 31.57±8.80 (−99.07±7.79) %; efficacy (%), Colorimetric, +Human MS (recombinant human AChE [5]): 10.88±0.00 (−102.91±1.64) %; IC50 (recombinant human AChE [5]; [7]): 10.9 µM
CCOP(=S)(OCC)Oc1nc(Cl)c(Cl)cc1Cl [Chlorpyrifos] | Inactive |  | 89.8% | 100% | 98.8% | efficacy (%), Fluorescence, +Human MS (recombinant human AChE [3]): 1.22±0.00 (−102.89±2.97) %; efficacy (%), Colorimetric, +Human MS (recombinant human AChE [5]): 1.71±0.47 (−93.65±1.00) %; inhibition of AChE activity (recombinant human AChE [5]): did not inhibit AChE activity; IC50 (recombinant human AChE [5]; [7]): 1.71 µM; IC50 (recombinant human AChE [5]; IC50, inhibition of AChE): 1.31 µM and 0.78 µM and 0.8 µM
CCOP(=S)(OCC)Oc1ccc2c(C)c(Cl)c(=O)oc2c1 [Coumaphos] | Inactive |  | 95% | 83.3% | 96.5% | efficacy (%), Fluorescence, +Human MS (recombinant human AChE [3]): 12.95±1.05 (−67.18±4.87) %; efficacy (%), Colorimetric, +Human MS (recombinant human AChE [5]): 8.06±1.94 (−98.15±5.15) %; IC50 (recombinant human AChE [5]; [7]): 8.06 µM
CCOP(=S)(OCC)Oc1cc(C)nc(C(C)C)n1 [Diazinon] |  | 102% |  | 96.3% | 73.1% | efficacy (%), Fluorescence, +Human MS (recombinant human AChE [3]): 113.22±7.66 (−71.22±6.26) %; IC50 (μM), Fluorescence, +Rat MS (recombinant human AChE [4]): Inactive; IC50 (μM), Colorimetric, +Human MS (recombinant human AChE [5]): Inactive
CCOP(=O)(OCC)Oc1cc(C)nc(C(C)C)n1 [Diazoxon] |  | 95.2% |  | 77.7% |  | IC50 (recombinant human AChE [1]): 1.33 µM
COP(=O)(OC)OC=C(Cl)Cl [Dichlorvos] |  | 34.9% |  | 76.8% |  | 
COP(=O)(OC)O/C(C)=C/C(=O)N(C)C [Dicrotophos] |  | 32.5% |  | 82.7% |  | 
CNC(=O)CSP(=S)(OC)OC [Dimethoate] | Inactive |  |  |  |  | IC50 (μM), Fluorescence, +Human MS (recombinant human AChE [3]): Inactive; cholinesterase activity in animals (cholinesterase): cholinesterase activity was inhibited; IC50 (μM), Fluorescence, +Rat MS (recombinant human AChE [4]): Inactive; IC50 (μM), Colorimetric, +Human MS (recombinant human AChE [5]): Inactive; AChE inhibition in human volunteers (AChE): no AChE inhibition was observed; IC50 (μM), Fluorescence (recombinant human AChE [2]): Inactive; IC50 (μM), Colorimetric, +Rat MS (recombinant human AChE [6]): Inactive
CCCSP(=O)(OCC)SCCC [Ethoprop] |  | 43.4% |  |  |  | 
CCOP(=O)(SC(C)CC)N1CCSC1=O (stereo not shown) [Fosthiazate] | Inactive |  |  |  |  | inhibitory effect on AChE activity (in words) (recombinant human AChE [1]): did not show inhibition effects; IC50 (μM), Fluorescence (recombinant human AChE [2]): Inactive; inhibitory effect on AChE activity (in words) (recombinant human AChE [2]): did not show inhibition effects
CCOC(=O)CC(SP(=O)(OC)OC)C(=O)OCC (stereo not shown) [Malaoxon] |  | 91.1% |  | 95.2% |  | 
CCOC(=O)CC(SP(=S)(OC)OC)C(=O)OCC (stereo not shown) [Malathion] | Inactive |  |  | 77% | 59.4% | IC50 (μM), Fluorescence, +Human MS (recombinant human AChE [3]): Inactive; IC50 (μM), Fluorescence, +Rat MS (recombinant human AChE [4]): Inactive; IC50 (μM), Colorimetric, +Human MS (recombinant human AChE [5]): Inactive
COP(N)(=O)SC (stereo not shown) [Methamidophos] |  | 38.7% |  | 103% |  | 
COP(=O)(OC)OC(Br)C(Cl)(Cl)Br (stereo not shown) [Naled] |  | 46.5% |  |  |  | IC50 (recombinant human AChE [1]): 61.3 µM; IC50 (μM), Fluorescence (recombinant human AChE [2]): Inactive
CNC(=O)CSP(=O)(OC)OC [Omethoate] | Inactive |  |  | 46.3% |  | IC50 (recombinant human AChE [2]): 68.9 µM
CCOP(=S)(OCC)SCSCC [Phorate] | Inactive |  | 72% | 44.4% | 96.3% | IC50 (μM), Fluorescence, +Human MS (recombinant human AChE [3]): Inactive; IC50 (μM), Colorimetric, +Human MS (recombinant human AChE [5]): Inactive; inhibitory effect on AChE activity (in words) (recombinant human AChE [5]): did not show inhibitory effects
COP(=S)(OC)SCN1C(=O)c2ccccc2C1=O [Phosmet] | Inactive |  | 43.5% | 65.3% |  | IC50 (μM), Fluorescence, +Human MS (recombinant human AChE [3]): Inactive; IC50 (μM), Colorimetric, +Human MS (recombinant human AChE [5]): Inactive; IC50 (μM), Colorimetric, +Rat MS (recombinant human AChE [6]): Inactive
CCN(CC)c1nc(C)cc(OP(=S)(OC)OC)n1 [Pirimiphos-methyl] | Inactive |  | 42% |  |  | IC50 (μM), Fluorescence, +Human MS (recombinant human AChE [3]): Inactive; IC50 (recombinant human AChE [4]): 41.7 µM; IC50 (μM), Colorimetric, +Human MS (recombinant human AChE [5]): Inactive; IC50 (μM), Fluorescence (recombinant human AChE [2]): Inactive; IC50 (μM), Colorimetric, +Rat MS (recombinant human AChE [6]): Inactive
CCCSP(=O)(OCC)Oc1ccc(Br)cc1Cl (stereo not shown) [Profenofos] |  | 83.2% |  | 93.7% |  | 
CCOP(=S)(Oc1cnc(C(C)(C)C)nc1)OC(C)C (stereo not shown) [Tebupirimfos] |  | 53% | 91% | 90.4% | 100% | efficacy (%), Fluorescence, +Human MS (recombinant human AChE [3]): 48.81±5.61 (−70.67±3.28) %; efficacy (%), Colorimetric, +Human MS (recombinant human AChE [5]): 14.39±2.31 (−95.21±2.02) %; IC50 (recombinant human AChE [5]; [7]): 14.4 µM
CCOP(=S)(OCC)SCSC(C)(C)C [Terbufos] | Inactive |  | 85.3% |  | 95.7% | IC50 (μM), Fluorescence, +Human MS (recombinant human AChE [3]): Inactive; efficacy (%), Colorimetric, +Human MS (recombinant human AChE [5]): 31.74±5.73 (−57.67±2.16) %; IC50 (recombinant human AChE [5]; [7]): 31.7 µM; IC50 (μM), Fluorescence (recombinant human AChE [2]): Inactive
CCCCSP(=O)(SCCCC)SCCCC [Tribufos] | Inactive |  |  | 60.8% |  | 
COP(=O)(OC)C(O)C(Cl)(Cl)Cl (stereo not shown) [Trichlorfon] |  | 30% |  | 91.5% |  | 
COP(=O)(OC)O/C(=C\Cl)c1cc(Cl)c(Cl)cc1Cl [Z-Tetrachlorvinphos] | Inactive |  |  | 75.7% |  | 
